Measurements published in PubChem BioAssay (NCI).
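Values below derive from 48-hour exposures of cells grown in 96-well plates, with endpoints linearly interpolated between the two concentrations bracketing the appropriate inhibition level. At the GI50, growth is halved. The concentration for full growth arrest is given as TGI.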

Experiments:
Assay in all cases: inhibition of tumour cell growth, NCI panel, 48 h
MDA-MB-468 breast = tested on: MDA-MB-468 breast
IGROV1 ovarian = tested on: IGROV1 ovarian
DU-145 prostate = tested on: DU-145 prostate
K-562 leukemia = tested on: K-562 leukemia
OVCAR-3 ovarian = tested on: OVCAR-3 ovarian
RPMI-8226 leukemia = tested on: RPMI-8226 leukemia
T-47D breast = tested on: T-47D breast
M14 melanoma = tested on: M14 melanoma
SK-MEL-28 melanoma = tested on: SK-MEL-28 melanoma
OVCAR-8 ovarian = tested on: OVCAR-8 ovarian
NCI/ADR-RES ovarian = tested on: NCI/ADR-RES ovarian
HCC-2998 colon = tested on: HCC-2998 colon
HL-60(TB) leukemia = tested on: HL-60(TB) leukemia
A549 NSCLC = tested on: A549 NSCLC
786-0 renal = tested on: 786-0 renal
HOP-92 NSCLC = tested on: HOP-92 NSCLC
NCI-H23 lung = tested on: NCI-H23 lung
SF-539 CNS = tested on: SF-539 CNS
A498 renal = tested on: A498 renal
SN12C renal = tested on: SN12C renal
MDA-MB-231 breast = tested on: MDA-MB-231 breast
U251 CNS = tested on: U251 CNS
SF-295 CNS = tested on: SF-295 CNS
KM12 colon = tested on: KM12 colon
EKVX NSCLC = tested on: EKVX NSCLC
ACHN renal = tested on: ACHN renal
OVCAR-5 ovarian = tested on: OVCAR-5 ovarian
HCT-15 colon = tested on: HCT-15 colon
PC-3 prostate = tested on: PC-3 prostate
SR leukemia = tested on: SR leukemia
NCI-H226 lung = tested on: NCI-H226 lung
MDA-MB-435 = tested on: MDA-MB-435
OVCAR-4 ovarian = tested on: OVCAR-4 ovarian
SNB-75 CNS = tested on: SNB-75 CNS
LOX IMVI melanoma = tested on: LOX IMVI melanoma
HS 578T breast = tested on: HS 578T breast
CAKI-1 renal = tested on: CAKI-1 renal
MOLT-4 leukemia = tested on: MOLT-4 leukemia
UACC-62 melanoma = tested on: UACC-62 melanoma
SK-MEL-5 melanoma = tested on: SK-MEL-5 melanoma
NCI-H460 lung = tested on: NCI-H460 lung
MALME-3M melanoma = tested on: MALME-3M melanoma
RXF 393 renal = tested on: RXF 393 renal
SNB-19 CNS = tested on: SNB-19 CNS
UO-31 renal = tested on: UO-31 renal
CCRF-CEM leukemia = tested on: CCRF-CEM leukemia
COLO 205 colon = tested on: COLO 205 colon
HOP-62 NSCLC = tested on: HOP-62 NSCLC
SW-620 colon = tested on: SW-620 colon
HT29 colon = tested on: HT29 colon
SK-MEL-2 melanoma = tested on: SK-MEL-2 melanoma
HCT-116 colon = tested on: HCT-116 colon
SF-268 CNS = tested on: SF-268 CNS
TK-10 renal = tested on: TK-10 renal
SK-OV-3 ovarian = tested on: SK-OV-3 ovarian
MCF7 breast = tested on: MCF7 breast
UACC-257 melanoma = tested on: UACC-257 melanoma
BT-549 breast = tested on: BT-549 breast

FC(F)(F)c1cc2c(Cl)ncnc2n1CCN1CCOCC1
GI50 (MDA-MB-468 breast): 2.73 µM | TGI (MDA-MB-468 breast): 10.4 µM | GI50 (IGROV1 ovarian): 2.54 µM | TGI (IGROV1 ovarian): 7.67 µM | GI50 (DU-145 prostate): 28.9 µM | TGI (DU-145 prostate): > 100 µM | GI50 (K-562 leukemia): 3.05 µM | TGI (K-562 leukemia): 18.7 µM | GI50 (OVCAR-3 ovarian): 19.4 µM | TGI (OVCAR-3 ovarian): 43.7 µM | GI50 (RPMI-8226 leukemia): 31.9 µM | TGI (RPMI-8226 leukemia): > 100 µM | GI50 (T-47D breast): 38.8 µM | TGI (T-47D breast): > 100 µM | GI50 (M14 melanoma): 11.6 µM | TGI (M14 melanoma): 36 µM | GI50 (SK-MEL-28 melanoma): 13.6 µM | TGI (SK-MEL-28 melanoma): 32.9 µM | GI50 (OVCAR-8 ovarian): 8.45 µM | TGI (OVCAR-8 ovarian): 29.4 µM | GI50 (NCI/ADR-RES ovarian): 30.5 µM | TGI (NCI/ADR-RES ovarian): > 100 µM | GI50 (HCC-2998 colon): 2.23 µM | TGI (HCC-2998 colon): 5.11 µM | GI50 (HL-60(TB) leukemia): 2.09 µM | TGI (HL-60(TB) leukemia): 5.97 µM | GI50 (A549 NSCLC): > 100 µM | TGI (A549 NSCLC): > 100 µM | GI50 (786-0 renal): 37 µM | TGI (786-0 renal): > 100 µM | GI50 (HOP-92 NSCLC): 19 µM | TGI (HOP-92 NSCLC): 59.8 µM | GI50 (NCI-H23 lung): 17.9 µM | TGI (NCI-H23 lung): 74.4 µM | GI50 (SF-539 CNS): 18.1 µM | TGI (SF-539 CNS): 42.2 µM | GI50 (A498 renal): > 100 µM | TGI (A498 renal): > 100 µM | GI50 (SN12C renal): 19.7 µM | TGI (SN12C renal): > 100 µM | GI50 (MDA-MB-231 breast): 4.36 µM | TGI (MDA-MB-231 breast): 18.3 µM | GI50 (U251 CNS): 14.8 µM | TGI (U251 CNS): 38.8 µM | GI50 (SF-295 CNS): 24.7 µM | TGI (SF-295 CNS): > 100 µM | GI50 (KM12 colon): 35.5 µM | TGI (KM12 colon): > 100 µM | GI50 (EKVX NSCLC): 17 µM | TGI (EKVX NSCLC): 94.6 µM | GI50 (ACHN renal): 7.65 µM | TGI (ACHN renal): > 100 µM | GI50 (OVCAR-5 ovarian): > 100 µM | TGI (OVCAR-5 ovarian): > 100 µM | GI50 (HCT-15 colon): 3.3 µM | TGI (HCT-15 colon): 17.7 µM | GI50 (PC-3 prostate): 11.3 µM | TGI (PC-3 prostate): 36.6 µM | GI50 (SR leukemia): 2.85 µM | TGI (SR leukemia): 12.6 µM | GI50 (NCI-H226 lung): 99 µM | TGI (NCI-H226 lung): > 100 µM | GI50 (MDA-MB-435): 13.2 µM | TGI (MDA-MB-435): 29.3 µM | GI50 (OVCAR-4 ovarian): 33 µM | TGI (OVCAR-4 ovarian): > 100 µM | GI50 (SNB-75 CNS): 10.1 µM | TGI (SNB-75 CNS): 22.4 µM | GI50 (LOX IMVI melanoma): 1.75 µM | TGI (LOX IMVI melanoma): 3.4 µM | GI50 (HS 578T breast): 16.5 µM | TGI (HS 578T breast): 59 µM | GI50 (CAKI-1 renal): 27.6 µM | TGI (CAKI-1 renal): > 100 µM | GI50 (MOLT-4 leukemia): 5.71 µM | TGI (MOLT-4 leukemia): 29 µM | GI50 (UACC-62 melanoma): 10.8 µM | TGI (UACC-62 melanoma): 32.5 µM | GI50 (SK-MEL-5 melanoma): 13 µM | TGI (SK-MEL-5 melanoma): 29.7 µM | GI50 (NCI-H460 lung): 23.2 µM | TGI (NCI-H460 lung): > 100 µM | GI50 (MALME-3M melanoma): 22.1 µM | TGI (MALME-3M melanoma): 67.3 µM | GI50 (RXF 393 renal): 14.9 µM | TGI (RXF 393 renal): 40.6 µM | GI50 (SNB-19 CNS): 15.3 µM | TGI (SNB-19 CNS): 32.9 µM | GI50 (UO-31 renal): 2.53 µM | TGI (UO-31 renal): 8.99 µM | GI50 (CCRF-CEM leukemia): 16.6 µM | TGI (CCRF-CEM leukemia): > 100 µM | GI50 (COLO 205 colon): 26.4 µM | TGI (COLO 205 colon): > 100 µM | GI50 (HOP-62 NSCLC): 38.9 µM | TGI (HOP-62 NSCLC): > 100 µM | GI50 (SW-620 colon): 10.5 µM | TGI (SW-620 colon): 56.1 µM | GI50 (HT29 colon): 27.3 µM | TGI (HT29 colon): > 100 µM | GI50 (SK-MEL-2 melanoma): 17.4 µM | TGI (SK-MEL-2 melanoma): 33.4 µM | GI50 (HCT-116 colon): 4.63 µM | TGI (HCT-116 colon): > 100 µM | GI50 (SF-268 CNS): 14.8 µM | TGI (SF-268 CNS): 33.8 µM | GI50 (TK-10 renal): > 100 µM | TGI (TK-10 renal): > 100 µM | GI50 (SK-OV-3 ovarian): > 100 µM | TGI (SK-OV-3 ovarian): > 100 µM | GI50 (MCF7 breast): 25 µM | TGI (MCF7 breast): > 100 µM | GI50 (UACC-257 melanoma): 10.5 µM | TGI (UACC-257 melanoma): 30.2 µM | GI50 (BT-549 breast): 13.6 µM | TGI (BT-549 breast): 28.2 µM
